US6491950B1, “Controlled release pharmaceutical composition” (Kos Pharmaceuticals, Inc., priority 2000, dated 2002)
Entries after “also recorded” stand apart in the source; their conditions may differ. Structures can show the parent of a compound that is named as a salt. One block for each molecule: values may come before it.

Test: In vitro dissolution procedure, USP Basket Method (Apparatus I)
Assay type: physicochemical
Details: 24 hours; for release of medicament, dependence on amount of surfactant: Example 7, FIG. 7, polysorbate 80 2.5, 5.0, 10.0%; for release of medicament, dependence on amount of high melting glyceride: Example 1, FIG. 1, Compritol 888 15-30%, hydrochloride; for release of medicament, dependence on type of medicament: Example 6, FIG. 6, 20% medicament, Methocel E10 P 3%, polysorbate 80 1%
Experimental: The dissolution release of the formulations was determined by the USP Basket Method (Apparatus I). By this method, samples are tested in a 40 mesh basket rotating at 100 RPM. Release media were used in a volume of 900 ml per dissolution vessel, maintained at 37° C. Double distilled deionized water was generally used as the dissolution media. Some formulations were also evaluated in simulated gastric fluid (0.1N hydrochloric acid, pH=1.2, no enzyme added) or simulated intestinal fluid (0.05 M phosphate buffer, pH=7.4, no enzyme added). Nine samples of 3.0 ml each were automatically collected at 2, 4, 6, […], 12, 14, 20 and 24 hours. The absorbency of the samples were measured at the peak wavelength in the ultraviolet spectrum with Hewliet Packard model 8453 spectrophotometer. The absorbency values were converted to percentages of added medicament that was released.

release of medicament, dependence on amount of surfactant (niacin 20%, olive oil, listed as Niacin): sustained over 24 hours
SMILES: O=C(O)c1cccnc1 [niacin]
release of medicament, dependence on amount of surfactant (niacin 20%, olive oil): faster the higher the level of the surfactant above a level of about 5.0% of the total amount of the formulation
release of medicament, with or without cellulosic polymer (Example 8, FIG. 8, niacin 20%, Methocel E10 P 3% or none, olive oil): released faster from a formulation containing Methocel E10P than from a formulation devoid of the cellulosic polymer

release of medicament, dependence on type of medicament (Compritol 888 25%, soybean oil): released faster than niacin or caffeine
SMILES: OCCOCCN1CCN(C(c2ccccc2)c2ccc(Cl)cc2)CC1 (stereo not shown) [hydroxyzine hydrochloride]
release of medicament, dependence on amount of high melting glyceride (hydroxyzine HCl 20%, soybean oil): moderately faster as the amount of higher fatty acid ester in the formulation is increased over a small range and then levels off
release of medicament, dependence on amount of high melting glyceride (hydroxyzine HCl 20%, soybean oil, listed as hydroxyzine HCl): consistent sustained release over 24 hours
release of medicament, dependence on type of oil (Example 2, FIG. 2, hydroxyzine HCl 20%, Compritol 888 25%, oil 51%): sustained at the same level over the period
release of medicament, dependence on type of high melting glyceride (Example 3, FIG. 3, hydroxyzine HCl 20%, glyceride 25%, soybean oil): fastest with Precirol AT05 slowest with Compritol 888/WL 2155, and intermediate with Compritol 888
release of medicament, dependence on type of cellulosic polymer (Example 4, FIG. 4, hydroxyzine HCl 20%, polymer 3% (Methocel E10 P, K15M, A4M, Ethocel P20)): released considerably faster from a formulation of Methocel K15M than Ethocel P20

release of medicament, dependence on type of medicament (Compritol 888 25%, soybean oil): released faster than niacin or caffeine
SMILES: COCCc1ccc(OCC(O)CNC(C)C)cc1 (stereo not shown) [metoprolol tartrate]
release of medicament, low hydroxypropyl ether celluloses (Example 11, FIG. 11, metoprolol tartrate 20%, LH 11, LH 22 or LH 30 3%, olive oil): sustained over a 24 hour period; also recorded: essentially the same for each cellulosic polymer of the formulation
release of medicament, dependence on amount of Compritol 888 (Example 12, FIG. 12, metoprolol tartrate 20%, Compritol 888 15-35%, olive oil): sustained over 24 hours; also recorded: higher at the higher amounts of compritol

SMILES: Cn1c(=O)c2c(ncn2C)n(C)c1=O [caffeine]
release of medicament, dependence on cellulosic polymer (Example 9, FIG. 9, caffeine 20%, Methocel E10 P, Methocel K100M, Ethocel P20 or no polymer, olive oil): faster when the formulation contains Methocel K100M than Ethocel P20; also recorded: sustained over a 24 hour period
